# Experiments:
# Hyp1-Nluc parasites = experiment: Egress, invasion & recovery assay (Nluc bioluminescence, smears); assay type: cell-based, Plasmodium falciparum; conditions: W-991 60 nM; for parasite morphology at 72 h after 4 h treatment: M-833 2 µM, Giemsa smears; for parasite growth (Nluc bioluminescence) followed 72 h after 4 h treatment: schizonts treated 4 h: M-833 2 µM, ML10 30 nM, E64 10 µM, heparin 100 µg/mL, then washed off
# Excerpt: To measure egress, invasion, and follow-up recovery in the presence of different compounds, we adapted the method developed in[11], using Hyp1-Nluc parasites. A full description is in the Supplementary Information. […]
# and compound 4. Note that M-833 was first purchased from MolPort (MolPort -002-267-916) then made in-house at WEHI: the differences observed in EC50s across experiments are attributed to the different batches of M -833. […]
# Egress, invasion & recovery assay. To measure egress, invasion and follow up recovery in the presence of different compounds, we adapted the method developed in6, using Hyp1-Nluc parasites7. These parasites episomally express the exported PEXEL protein Hyp1 (PF3D7_0113300) tagged with a NanoLuc luciferase (NLuc) and were selected with 2.5 nM WR99210 (Jacobus). Highly synchronised schizonts were obtained using ML10 (LifeArc) and sorbitol synchronisation, and Percoll-purified (the culture was gently layered over 67% Percoll (Cytiva) in RPMI, and centrifuged for 15 min at 1500 g and the schizont layer was collected and washed). In a 96-well plate, […]
# cultures were set up in 4 replicates (3 replicates for the Nluc readout, and one replicate for Giemsa smears) with 1-2% parasitemia, 2% haematocrit, with the following […]
# 100 μg/ml heparin (Sigma) and 10 μM E64 (Sigma). The schizonts were allowed to egress and invade for 4 h at 37°C. A “background” plate without treatment was left in the fridge during this time. After 4 h, cultures were sorbitol -treated to eliminate schizonts that have not egressed. Smears were made every day for the following 3 days, and 5 μL of the resuspended cultures were taken to measure Nluc activity (to assess parasite’s presence). To measure Nluc activity, 5 μL culture were added to 45 μL NanoGlo reagent (1x Promega lysis buffer and NanoGlo reagent; Promega). The average luminescence of the background cultures was subtracted to the average luminescence of each sample. […]
# The viable parasite value was then expressed in log units and parasite reduction ratio was calculated as a decrease in […]
# [1] = test system: male gametes from mature stage V gametocytes; experiment: Dual gamete formation assay: male gamete formation (exflagellation); assay type: cell-based, Plasmodium falciparum; conditions: for inhibition of male gamete formation: 1 µM, 48 h treatment of mature gametocytes; for Dual Gamete Formation Assay: Male at 1 µM, Mean: mean of 4 plates
# Method: The compounds were tested in the P. falciparum Dual Gamete Formation Assay (PfDGFA)[84], fully described in the Supplementary Information. […]
# Dual gamete formation assays. The compounds were tested in the P. falciparum Dual Gamete Formation Assay (PfDGFA) 13. Briefly, mature stage V gametocytes were exposed to compounds for 48 h at 37°C in 384 well plates in gametocyte culture medium (RPMI 1640 supplemented with 25 mM HEPES, 50 μg/mL hypoxanthine, 4.8 g/L NaHCO3, 2 mM L-glutamine, 5% pooled type AB serum, 0.5% Albumax II (Gibco)) under a 1% O2, 3% CO2, 96% N2 environment. Gametogenesis was then triggered by the addition of 10 μL ookinete medium (gametocyte culture medium supplemented with 100 μM xanthurenic acid and 0.27 µg/mL Cy3-labelled anti-Pfs25 antibody) to each well at room temperature. Plates were then cooled on a metal block at 4°C for four min to ensure even cooling and then stabilised for a further 4 min at 28°C. At 20 min post-induction, male gametogenesis was recorded in each well by automated brightfield microscopy using a x4 objective lens and 1.5x magnifier (x6 effective magnification). Afterward, plates were incubated in the dark at room temperature for 24 h and then female gametogenesis recorded in each well by automated fluorescence microscopy (anti-Pfs25-positive cells). All experiments were performed in quadruplicate with DMSO and cabamiquine (DDD107498)17 as negative and positive controls respectively. All data was evaluated in comparison to the positive and negative controls to calculate percentage inhibition of male and female gametocytes, and dose response analysis and IC50 calculation performed using GraphPad Prism. […]
Structure (SMILES),parasite morphology at 72 h after 4 h treatment (Hyp1-Nluc parasites),parasite growth (Nluc bioluminescence) followed 72 h after 4 h treatment (Hyp1-Nluc parasites),inhibition of male gamete formation [1],"Dual Gamete Formation Assay: Male at 1 µM, Mean [1]"
Cc1cc(Cl)c(S(=O)(=O)N2CCCC2)cc1OCC(=O)NC1CCCCC1 [M-833],resembled the dysmorphic ring-stage parasites,virtually no recovery after three days,no inhibition,0.872
CC(C)(Nc1ccc(Cl)c(S(=O)(=O)N2CCOCC2)c1)C(=O)Nc1ccc(F)c(Cl)c1 [W-991],resembled the dysmorphic ring-stage parasites,virtually no recovery after three days,no inhibition,-1.328

# — article PMC11189555, “Aryl amino acetamides prevent Plasmodium falciparum ring development via targeting the lipid-transfer protein PfSTART1” (Nature Communications, 2024)
